Assay results taken from US9345247B2, “Azaindole carboxylic acid amides and azaindole thiocarboxylic acid amides for use as insecticides and acaricides” (BAYER CROPSCIENCE AG, priority 2012, dated 2016).
One block for each molecule: values may come before it.

What was measured:
Boophilus microplus = Boophilus microplus test (BOOPMI injection); type: in vivo; details: 20 μg/animal, after 7 days
Experimental: Boophilus microplus Test (BOOPMI Injection) [table] To produce a suitable active compound formulation, 10 mg of active compound are mixed with 0.5 ml of solvent and the concentrate is diluted with solvent to the desired concentration. The active compound solution is injected into the abdomen (Boophilus microplus), and the animals are transferred into dishes and stored in a climate-controlled room. After 7 days, the efficacy in % is determined. The activity is assessed by laying of fertile eggs. 100% means that none of the ticks has laid any fertile eggs.

Ctenocephalides felis = assay: Ctenocephalides felis; oral (CTECFE); type: in vivo; details: 100 ppm, oral in cattle blood, after 2 days
Experimental: Ctenocephalides felis; Oral (CTECFE)
To produce a suitable active compound formulation, 10 mg of active compound are mixed with 0.5 ml of dimethyl sulphoxide. A portion of the concentrate is diluted with citrated cattle blood, and the desired concentration is prepared.
About 20 unfed adult fleas (Ctenocephalides felis) are placed into a chamber which is closed at the top and bottom with gauze. A metal cylinder whose bottom end is closed with parafilm is placed onto the chamber. The cylinder contains the blood/active compound preparation, which can be imbibed by the fleas through the parafilm membrane.
After 2 days, the kill in % is determined 100% means that all fleas have been killed; 0% means that none of the fleas have been killed.

Lucilia cuprina larvae = assay: Lucilia cuprina test (LUCICU); type: in vivo; details: 100 ppm, after 2 days
Experimental: (§1) Lucilia cuprina Test (LUCICU) [table] To produce a suitable active compound formulation, 10 mg of active compound are mixed with 0.5 ml of dimethyl sulfoxide, and the concentrate is diluted with water to the desired concentration. Vessels containing horse meat treated with the active compound formulation of the desired concentration are populated with about 20 Lucilia cuprina larvae. After 2 days, the kill in % is determined 100% means that all the larvae have been killed; 0% means that none of the larvae have been killed.

adult Musca domestica = assay: Musca domestica test (MUSCDO); type: in vivo; details: 100 ppm, after 2 days
Experimental: as §1, with “Musca domestica” for “Lucilia cuprina”, “(MUSCDO)” for “(LUCICU)”, “a sponge” for “horse meat”, “adult Musca domestica.” for “about 20 Lucilia cuprina larvae.”, “flies” for “the larvae”, “no flies” for “none of the larvae”

[1] = system: green peach aphid (Myzus persicae); assay: Myzus persicae spray test (MYZUPE); type: in vivo; details: 100 g/ha, after 6 days
Experimental: Myzus persicae-Spray Test (MYZUPE) [table] To produce a suitable active compound formulation, 1 part by weight of active compound is mixed with the stated amounts of solvent and emulsifier, and the concentrate is diluted with emulsifier-containing water to the desired concentration. Discs of Chinese cabbage leaves (Brassica pekinensis) infested by all stages of the green peach aphid (Myzus persicae) are sprayed with an active compound formulation of the desired concentration. After 6 days, the efficacy in % is determined 100% means that all the aphids have been killed; 0% means that none of the aphids have been killed.

[2] = system: larvae of the mustard beetle (Phaedon cochleariae); assay: Phaedon cochleariae spray test (PHAECO); type: in vivo; details: 100 g/ha, spray, after 7 days
In short: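 Chinese cabbage (Brassica pekinensis) leaf discs sprayed with compound in emulsifier-containing water at the desired concentration, dried, then infested with larvae. Efficacy scored after 7 days as % larvae killed (100% = all dead, 0% = none).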

[3] = system: caterpillars of the armyworm (Spodoptera frugiperda); assay: Spodoptera frugiperda spray test (SPODFR); type: in vivo; details: 100 g/ha, spray, after 7 days
Experimental: Spodoptera frugiperda—Spray Test (SPODFR)
(§2) To produce a suitable active compound formulation, 1 part by weight of active compound is mixed with the stated amounts of solvent and emulsifier, and the concentrate is diluted with emulsifier-containing water to the desired concentration.
Leaf discs of maize (Zea mays) are sprayed with an active compound formulation of the desired concentration and, after drying, populated with caterpillars of the armyworm (Spodoptera frugiperda).
After 7 days, the efficacy in % is determined. 100% means that all the caterpillars have been killed; 0% means that no caterpillars have been killed.
To produce a suitable preparation of active compound, 1 part by weight of active compound is mixed with the stated amounts of solvent and emulsifier, and the concentrate is diluted with emulsifier-containing water to the desired concentration.
Leaf discs of maize (Zea mays) are sprayed with an active compound preparation of the desired concentration and, after drying, populated with caterpillars of the armyworm (Spodoptera frugiperda).
After the stated period of time, the effect in % is determined. 100% means that all the caterpillars have been killed; 0% means that no caterpillars have been killed.

[4] = system: greenhouse red spider mite (Tetranychus urticae); assay: Tetranychus urticae spray test, OP-resistant (TETRUR); type: in vivo; details: 100 g/ha, spray, after 6 days
Experimental: as §2
Discs of bean leaves (Phaseolus vulgaris) infested by all stages of the greenhouse red spider mite (Tetranychus urticae) are sprayed with an active compound formulation of the desired concentration.
After 6 days, the efficacy in % is determined 100% means that all the spider mites have been killed; 0% means that none of the spider mites have been killed. […]

[5] = log P by HPLC on reversed-phase column (C18), EEC directive 79/831 Annex V.A8; type: physicochemical; details: HPLC, acidic range pH 2.7, 43° C.
In short: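 log P determined per EEC directive 79/831 Annex V.A8 by reversed-phase C18 HPLC at 43 °C, calibrated with unbranched alkan-2-ones (C3–C16) of known log P. Acidic-range determination at pH 2.7 with 0.1% formic acid acetonitrile/water, linear 10–95% acetonitrile gradient.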

Compound: CCn1c(C(=O)NC(c2cccc(C(F)(F)F)c2)C(F)(F)F)cc2cc(C(=O)NC3(C#N)CC3)c(C)nc21 (centres unmarked) [Compound 6]
efficacy (laying of fertile eggs) (Boophilus microplus): 100% | efficacy (kill) (Ctenocephalides felis): 100% | efficacy (kill) (Lucilia cuprina larvae): 100% | efficacy (kill) (adult Musca domestica): 100% | efficacy [1]: 100% | efficacy [2]: 100% | efficacy [3]: 100% | efficacy [4]: 90% | log p [5]: 3.53

Compound: CCn1c(C(=O)NC(c2ccc(F)c(Cl)c2)C(F)(F)F)cc2cc(C(=O)NC3(C#N)CC3)c(C)nc21 (centres unmarked) [Compound 10]
efficacy (laying of fertile eggs) (Boophilus microplus): 100% | efficacy (kill) (Ctenocephalides felis): 100% | efficacy (kill) (Lucilia cuprina larvae): 100% | efficacy (kill) (adult Musca domestica): 100% | efficacy [1]: 90% | efficacy [2]: 100% | efficacy [3]: 100% | efficacy [4]: 100% | log p [5]: 3.51

Compound: CCn1c(C(=O)NC(c2cccc(C(F)(F)F)c2)C(F)(F)F)cc2cc(C(=O)NC3(C#N)CC3)c(Cl)nc21 (centres unmarked) [Compound 11]
efficacy (laying of fertile eggs) (Boophilus microplus): 100% | efficacy (kill) (Ctenocephalides felis): 100% | efficacy (kill) (Lucilia cuprina larvae): 100% | efficacy (kill) (adult Musca domestica): 100% | efficacy [1]: 100% | efficacy [2]: 100% | efficacy [3]: 100% | efficacy [4]: 100% | log p [5]: 3.68

log p [5]: 4.12
Compound: CCn1c(C(=O)NC(c2cccc(C(F)(F)F)c2)C(F)(F)F)cc2cc(C(=O)NC3CCC3)c(Cl)nc21 (centres unmarked) [Compound 15]
efficacy [1]: 90% | efficacy [2]: 100%

Compound: CCn1c(C(=O)NC(c2ccc(F)c(Cl)c2)C(F)(F)F)cc2cc(C(=O)NC3(C#N)CC3)c(Cl)nc21 (centres unmarked) [Compound 26]
efficacy (laying of fertile eggs) (Boophilus microplus): 100% | efficacy (kill) (Ctenocephalides felis): 100% | efficacy (kill) (Lucilia cuprina larvae): 100% | efficacy (kill) (adult Musca domestica): 100% | efficacy [1]: 100% | efficacy [2]: 100% | efficacy [3]: 100% | efficacy [4]: 100% | log p [5]: 3.62

Compound: CCn1c(C(=O)NC(c2cc(Cl)c(F)c(Cl)c2F)C(F)(F)F)cc2cc(C(=O)NC3(C(N)=S)CC3)c(Cl)nc21 (centres unmarked) [Compound 63]
efficacy (laying of fertile eggs) (Boophilus microplus): 100% | efficacy (kill) (Ctenocephalides felis): 100% | efficacy (kill) (Lucilia cuprina larvae): 100% | efficacy (kill) (adult Musca domestica): 100% | efficacy [2]: 100% | efficacy [3]: 100% | efficacy [4]: 90% | log p [5]: 4.20

Compound: CCn1c(C(=O)NC(c2cc(Cl)c(F)c(Cl)c2)C(F)(F)F)cc2cc(C(=O)NC3(C(N)=S)CC3)c(Cl)nc21 (centres unmarked) [Compound 64]
efficacy (laying of fertile eggs) (Boophilus microplus): 100% | efficacy (kill) (Ctenocephalides felis): 100% | efficacy (kill) (Lucilia cuprina larvae): 100% | efficacy (kill) (adult Musca domestica): 100% | efficacy [2]: 100% | efficacy [3]: 100% | efficacy [4]: 100% | log p [5]: 3.97

Compound: CCn1c(C(=O)NC(c2ccc(F)c(Cl)c2)C(F)(F)F)cc2cc(C(=O)NC3(C(N)=S)CC3)c(Cl)nc21 (centres unmarked) [Compound 65]
efficacy (laying of fertile eggs) (Boophilus microplus): 100% | efficacy (kill) (Ctenocephalides felis): 100% | efficacy (kill) (Lucilia cuprina larvae): 100% | efficacy (kill) (adult Musca domestica): 80% | efficacy [2]: 100% | efficacy [3]: 100% | efficacy [4]: 90% | log p [5]: 3.51

Compound: CCn1c(C(=O)NC(c2ccc(F)c(C(F)(F)F)c2)C(F)(F)F)cc2cc(C(=O)NC3(C#N)CC3)c(C)nc21 (centres unmarked) [Compound 75]
efficacy [1]: 90% | efficacy [2]: 100% | efficacy [3]: 100% | efficacy [4]: 100% | log p [5]: 3.64
